Where “and” joins values, the source holds several entries; their conditions need not be identical. Equal values may be shown once. Entries after “also recorded” stand apart in the source; their conditions may differ. Read-outs that look alike come from different tables or passages of the source.
Molecular target: T1, recombinant EDC3 (Homo sapiens, UniProt Q96F86)
T1 construct: FLAG; expressed in transfected cells; host or cells: HEK293T
T1 sequence (Q96F86 1-508): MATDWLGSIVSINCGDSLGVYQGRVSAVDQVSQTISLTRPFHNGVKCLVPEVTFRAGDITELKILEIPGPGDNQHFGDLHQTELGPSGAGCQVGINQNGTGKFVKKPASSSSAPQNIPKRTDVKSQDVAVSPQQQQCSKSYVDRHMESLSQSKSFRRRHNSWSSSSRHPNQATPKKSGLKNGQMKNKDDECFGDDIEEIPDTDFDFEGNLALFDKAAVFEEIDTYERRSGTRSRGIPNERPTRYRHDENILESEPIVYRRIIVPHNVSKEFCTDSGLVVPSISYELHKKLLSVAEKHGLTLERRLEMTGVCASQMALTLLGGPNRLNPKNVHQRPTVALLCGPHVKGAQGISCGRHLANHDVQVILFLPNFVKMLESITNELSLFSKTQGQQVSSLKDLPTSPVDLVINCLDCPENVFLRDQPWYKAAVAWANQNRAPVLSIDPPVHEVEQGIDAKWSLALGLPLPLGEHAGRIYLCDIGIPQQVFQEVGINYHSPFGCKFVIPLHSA
Assay: Competitive gel-based ABPP, HHS-465 probe labeling of recombinant EDC3 in HEK293T cells
Format: cell-based
Conditions: for inhibition of HHS-465 probe labeling of recombinant EDC3 (in words): 25 μM, 2 h (FIG. 4F), 0.1-100 μM for concentration dependence (FIG. 4D)
Text: FIGS. 4A-4F. Discovery of a SuTEx ligand for the hyper-reactive EDC3 Y475 site. (FIG. 4A) Overlap of liganded sites from SuTEx PB modulators with reported RNA granule induction-sensitive lysine and tyrosine sites (RISKYs; Ciancone et al., 2022). The five overlapping sites were further compared to previously reported hyper-RISKY sites (Ciancone et al., 2022) resulting in the identification of the tyrosine-475 (Y475) site on EDC3. (FIG. 4B) Representative immunofluorescence images depicting decreased PBs and increased SGs in AHL-030-treated cells under stress conditions. EKT235 is shown as a negative control. See FIGS. 8 and 9 for additional details. (FIG. 4C) Representative MS1 extracted ion chromatograms (EICs) showing EDC3 Y475 (i.e., amino acid 2 of the peptide sequence […]; SEQ ID NO: 1, which corresponds to amino acids 474-500 of the human enhancer of mRNA-decapping protein 3 isoform 1 polypeptide of GENBANK® Accession No. NP_001135915.1) is liganded by AHL-030 but not EKT235 [SILAC ratio or SR>2 for DMSO vehicle (light, red)/SuTEx fragment ligand (heavy, blue) treatment conditions]. Enrichment (HHS-465/DMSO) and 1:1 (HHS-465/HHS-465) controls are shown. SRs are calculated as the integrated area under the curve ratio of light-to-heavy peptide. Data are representative of n=2-3 biologically independent replicates. […] EDC3-expressing HEK293T cells were pretreated with varying concentrations of AHL-030 (0.1-100 μM, 2 hours) followed by lysis and probe labeling of soluble proteomes with HHS-465 (100 μM, 1 h, RT). The in situ IC50 for EDC3 probe labeling inhibition by AHL-030 was estimated to be ~6 μM. […] Data shown are mean±SEM and representative of n=3 biologically independent replicates. […] Western blots comparing recombinant expression of EDC3 (α-FLAG) and loading controls (α-GAPDH) are shown. Data are representative of n=2 biologically independent replicates.
Among the candidate PB-modulating SuTEx compounds, we focused on AHL-030 because of its PB-inhibitory, SG-enhancing activity in stressed cells and ability to ligand the EDC3 Y475 site (SR >2; FIGS. 4B and 4C). Importantly, we identified a restricted number of reproducibly liganded sites (7 in total) in addition to EDC3 Y475 in chemoproteomic profiling studies of AHL-030 (FIG. 12). We further confirmed AHL-030 as an EDC3 ligand using competitive activity-based protein profiling (ABPP; Grams & Hsu, 2022). Recombinant EDC3-expressing HEK293T cells were treated with a panel of RNP granule modulators including AHL-030 and the negative control compound EKT235 to evaluate structure-activity relationships (SAR, 25 μM compounds, 2 h). Cells were lysed and soluble proteomes labeled with HHS-465 (100 μM, 1 h, RT) followed by CuAAC with rhodamine-azide, SDS-PAGE and in-gel fluorescence scanning. […] Using the in vitro IC50, we calculated the lipophilic efficiency (LipE) of AHL-030 to be ~7, which falls in the range of acceptable lipophilicity in relation to potency (Leeson & Springthorpe, 2007).

COc1ccc(S(=O)(=O)n2cc(CS(C)(=O)=O)nn2)cc1 [AHL-030, 1-((4-Methoxyphenyl)sulfonyl)-4-((methylsulfonyl)methyl)-1H-1,2,3-triazole]
inhibition of HHS-465 probe labeling of recombinant EDC3 (in words) (HHS-465 100 μM, 1 h, RT): blocked HHS-465 probe labeling of EDC3 in a concentration-dependent manner; also recorded: concentration-dependent binding to recombinant EDC3; also recorded: competition of HHS-465 probe labeling
pIC50/EC50: pIC50 (AHL-030, used for LipE): 5.3
IC50 (IC50 (AHL-030), EDC3 probe labeling, read-out: IC50/EC50 (M): IC50): 5.6e-06 M
IC50 (in situ, 0.1-100 μM, 2 h, HHS-465 100 μM, 1 h, RT, n=3, read-out: IC50 for EDC3 probe labeling inhibition): 6e-06 M and ~6e-06 M

N#Cc1ccc(S(=O)(=O)n2cc(-c3cccc(Cl)c3)nn2)cc1 [EKT231, 4-((4-(3-Chlorophenyl)-1H-1,2,3-triazol-1-yl)sulfonyl)benzonitrile]
inhibition of HHS-465 probe labeling of recombinant EDC3 (in words) (HHS-465 100 μM, 1 h, RT): largely inactive

CC(C)c1cc(C(C)C)c(S(=O)(=O)n2cc(-c3ccc(C(F)(F)F)cc3)nn2)c(C(C)C)c1 [AHL-003]
inhibition of HHS-465 probe labeling of recombinant EDC3 (in words) (HHS-465 100 μM, 1 h, RT): largely inactive

— US20260294874A1, “COMPOSITIONS COMPRISING MODULATORS OF RIBONUCLEOPROTEIN GRANULE FORMATION AND DISSOLUTION AND METHODS OF USE THEREOF” (University of Virginia Patent Foundation, priority 2023, published 2026)
